Data on 5 compounds can be found in article PMC4396983 (Bioorganic & medicinal chemistry, 2015).

SMILES strings stand for the structures.

The target of experiment [1] is T1, human recombinant LSD1 (Homo sapiens, UniProt O60341). Conditions: previous studies ref 8; cited from earlier work.
The target in experiment [2] is T1, human recombinant LSD1. Put plainly: Recombinant LSD1 inhibition assay. The class given is biochemical. The note with it: 10 μM.

Take `Cl.N=C(NCCCNCCCCCCCNCCCNC(=N)NC(=N)NCCC(c1ccccc1)c1ccccc1)NC(=N)NCCC(c1ccccc1)c1ccccc1` [Compound 2, verlindamycin]: on human recombinant LSD1 [1], the Mode of inhibition entry was “non-competitive inhibitor”.

With `Cl.O=C(NCCCNCCCCCNCCCNC(=O)Nc1ccccc1)Nc1ccccc1` [Compound 7a, 1,13-bis-{3-[1-(phenyl)ureido]}-4,10-diazatridecane dihydrochloride], the “Effect on LSD1 activity” value at human recombinant LSD1 [2] was “increase in the activity of LSD1”.

With `CCNC(=O)NCCCNCCCCCCNCCCNC(=O)NCC.Cl.Cl` [Compound 9a], the “Effect on LSD1 activity” value at human recombinant LSD1 [2] is reported as “increase in the activity of LSD1”.

Turning to `CCCNC(=O)NCCCNCCCCCCNCCCNC(=O)NCCC.Cl.Cl` [Compound 9b], the “Effect on LSD1 activity” value at human recombinant LSD1 [2] is recorded as “increase in the activity of LSD1”.

Consider `Cl.Cl.O=C(NCCCNCCCCCCNCCCNC(=O)NCc1ccccc1)NCc1ccccc1` [Compound 9d], for which the “Effect on LSD1 activity” value at human recombinant LSD1 [2] was “increase in the activity of LSD1”.
